This is an account of results in US20070149525A1, “Methods of treating amyloidosis using aryl-cyclopropyl derivative aspartyl protease inhibitors” (priority 2005, published 2007).

Read-outs that look alike come from different tables or passages of the source.

This series in a line: In vitro permeability across MDCK cell monolayer. The note with it: dog, test compound 5 μM, 2 h at 37° C., apical to basolateral, read-out: Permeability Forward A > B. Format: in vitro ADME, Canine. As for the experimental part:
Compounds were evaluated for permeability across a monolayer of Madin-Darby Canine Kidney (MDCK) cells in a transwell device following culturing for 4 days. […] A 0.5 mL of cell suspension (400,000 cells/mL) was placed on membrane and a 1.5 mL media in the bottom wells on day 1. On day 2 and day 3, cells were fed with new media. […] Media was removed from upper chambers and filled with mHBSS with or without CspA, and incubated 30 min at 37° C. with light shaking. Donor chambers were emptied, and filled with test compound at 5 μM in mHBSS. […] Plates were incubated for 2 h at 37° C. with shaking. After 2 h, both the donor and receiver wells were sampled. The bottom chambers were read in a fluorometer to assess LY leakage, and then the media from all wells were assayed by LC/MS/MS to determine compound levels.

For `CC(=O)NC(Cc1cc(F)cc(F)c1)C(O)CNC1(n2cccn2)CC1Cc1ccccc1` (single isomer, unassigned) [23.30 Diastereomer A, N-(4-(2-benzyl-1-(1H-pyrazol-1-yl)cyclopropylamino)-1-(3,5-difluorophenyl)-3-hydroxybutan-2-yl)acetamide], the Papp A→B at 2 h, 5 μM (MDCK) amounted to 8.48 ×10⁻⁶ cm/s. Regarding `CC(C)(C)Cc1cc(C2(NCC(O)C(Cc3cc(F)cc(F)c3)NC(=O)CF)CC2)on1` (stereo not drawn) [Example 23.10, N-(4-(1-(3-neopentylisoxazol-5-yl)cyclopropylamino)-1-(3,5-difluorophenyl)-3-hydroxybutan-2-yl)-2-fluoroacetamide], the Papp A→B at 2 h, 5 μM came out at 8.26 ×10⁻⁶ cm/s. As to `CC(=O)NC(Cc1cc(F)cc(F)c1)C(O)CNC1(n2cccn2)C2CCCC21` (stereo not drawn) [Example 23.14, N-(4-(6-(1H-pyrazol-1-yl)bicyclo[3.1.0]hexan-6-ylamino)-1-(3,5-difluorophenyl)-3-hydroxybutan-2-yl)acetamide], the Papp A→B at 2 h, 5 μM (MDCK) turned out to be 20.4 ×10⁻⁶ cm/s. With `CC(=O)NC(Cc1cc(F)cc(F)c1)C(O)CNC1(c2cc(-n3cccn3)cs2)CC1` (stereo not drawn) [Example 23.15, N-(4-(1-(4-(1H-pyrazol-1-yl)thiophen-2-yl)cyclopropylamino)-1-(3,5-difluorophenyl)-3-hydroxybutan-2-yl)acetamide], the Papp A→B at 2 h, 5 μM (MDCK) is 12.1 ×10⁻⁶ cm/s. Same read-out and setting: the same measure for `CC(=O)NC(Cc1cc(F)cc(F)c1)C(O)CNC1(c2cncc(CC(C)(C)C)c2)CC1` (stereo not drawn) [Example 23.16, N-(1-(3,5-difluorophenyl)-3-hydroxy-4-(1-(5-neopentylpyridin-3-yl)cyclopropylamino)butan-2-yl)acetamide]: 13.5 ×10⁻⁶ cm/s. On to `CC(=O)NC(Cc1cc(F)cc(F)c1)C(O)CNC1(c2csc(CC(C)(C)C)n2)CC1` (stereo not drawn) [Example 23.19, N-(4-(1-(2-neopentylthiazol-4-yl)cyclopropylanimo)1-(3,5-difluorophenyl)-3-hydroxybutan-2-yl)acetamide], for which the Papp A→B at 2 h, 5 μM was determined as 26.7 ×10⁻⁶ cm/s. For `CC(=O)NC(Cc1cc(F)cc(F)c1)C(O)CNC1(c2cn(-c3ccsc3)nn2)CC1` (stereo not drawn) [Example 23.20, N-(1-(3,5-difluorophenyl)-3-hydroxy-4-(1-(1-(thiophen-3-yl)-1H-1,2,3-triazol-4-yl)cyclopropylamino)butan-2-yl)acetamide], the Papp A→B at 2 h, 5 μM (MDCK) stood at 12.1 ×10⁻⁶ cm/s. With `CC(=O)NC(Cc1cc(F)cc(F)c1)C(O)CNC1(c2csc(C(C)(C)C)c2)CC1` (stereo not drawn) [Example 23.21, N-(4-(1-(5-tert-butylthiophen-3-yl)cyclopropylamino)-1-(3,5-difluorophenyl)-3-hydroxybutan-2-yl)acetamide], the Papp A→B at 2 h, 5 μM (MDCK) amounted to 10 ×10⁻⁶ cm/s. Regarding `CC(=O)NC(Cc1cc(F)cc(F)c1)C(O)CNC1(c2cccc(-n3cccn3)c2)CC1C` (stereo not drawn) [Example 23.23, N-(4-(1-(3-(1H-pyrazol-1-yl)phenyl)-2-methylcyclopropylamino)-1-(3,5-difluorophenyl)-3-hydroxybutan-2-yl)acetamide], the Papp A→B at 2 h, 5 μM (MDCK) is 11.1 ×10⁻⁶ cm/s. Same read-out and setting: the same measure for `CC(=O)NC(Cc1cc(F)cc(F)c1)C(O)CNC1(c2cccc(C3CCOC3)c2)CC1` (stereo not drawn) [Example 23.24, N-(1-(3,5-difluorophenyl)-3-hydroxy-4-(1-(3-(tetrahydrofuran-3-yl)phenyl)cyclopropylamino)butan-2-yl)acetamide]: 13.2 ×10⁻⁶ cm/s; for `C=C(c1cccc(C2(NCC(O)C(Cc3cc(F)cc(F)c3)NC(C)=O)CC2)c1)C(F)(F)F` (stereo not drawn) [Example 23.26, N-(1-(3,5-difluorophenyl)-3-hydroxy-4-(1-(3-(3,3,3-trifluoroprop-1-en-2-yl)phenyl)cyclopropylamino)butan-2-yl)acetamide]: 10.3 ×10⁻⁶ cm/s; for `CC(=O)NC(Cc1cc(F)cc(F)c1)C(O)CNC1(c2cncc(-n3cccn3)c2)CC1` (stereo not drawn) [Example 23.29, N-(4-(1-(5-(1H-pyrazol-1-yl)pyridin-3-yl)cyclopropylamino)-1-(3,5-difluorophenyl)-3-hydroxybutan-2-yl)acetamide]: 8.62 ×10⁻⁶ cm/s.
